Test results as given in ChEMBL document CHEMBL3885861, “Open TG-GATES”.

Species on record: Rattus norvegicus
Assay: Open TG-GATES - Regimen: Single
Type: toxicity, organism-based, Sprague-Dawley
Parameters: regimen Single, gender Male, age 6 weeks
Conditions: in vivo, po, route gavage; for Bas / Eos / Fbg / Hb / Ht / Lym / MCH / MCHC / MCV / Mono / Neu / PT / Plat / RBC / Ret / WBC: tissue Blood; for KIDNEY_L / KIDNEY_R / KIDNEY_TOTAL: tissue Kidney; for LIVER: tissue Liver; for ALP / ALT / AST / BUN / CRE / Ca / Cl / DBIL / GLC / IP / K / LDH / Na / PL / RALB / TBIL / TC / TG / TP / gamma-GTP: tissue Plasma
[1] = 150 mg/kg, 3 h, dose level Middle
[2] = 150 mg/kg, 6 h, dose level Middle
[3] = 150 mg/kg, 9 h, dose level Middle
[4] = 150 mg/kg, 24 h, dose level Middle

## CN(C)CCCN1c2ccccc2Sc2ccc(Cl)cc21 [CHLORPROMAZINE]
45 mg/kg, 9 h, dose level Low
  TERMINAL_BW: 211.4 g
  Bas: 0%
  Eos: 1%
  Fbg: 219.2 mg/dL
  Hb: 12.8 g/dL
  Ht: 37.4%
  Lym: 76.6%
  MCH: 21.4 pg
  MCHC: 34.1%
  MCV: 62.7 fL
  Mono: 2.8%
  Neu: 18.8%
  PT: 12.3 s
  Plat: 128.5 x10_4/uL
  RBC: 596.6 x10_4/ul
  Ret: 8%
  WBC: 53.8 x10_2/uL
  KIDNEY_L: 0.9 g
  KIDNEY_R: 0.9 g
  KIDNEY_TOTAL: 1.8 g
  LIVER: 9.1 g
  ALP: 807.4 IU/L
  ALT: 28.2 IU/L
  AST: 63.2 IU/L
  BUN: 9.4 mg/dL
  CRE: 0.4 mg/dL
  Ca: 10.4 mg/dL
  Cl: 106.4 meq/L
  DBIL: 0.07 mg/dL
  GLC: 263.8 mg/dL
  IP: 9.6 mg/dL
  K: 3.6 meq/L
  LDH: 215.6 IU/L
  Na: 143.4 meq/L
  PL: 147.2 mg/dL
  RALB: 3.4 g/dL
  TBIL: 0.1 mg/dL
  TC: 84.4 mg/dL
  TG: 14 mg/dL
  TP: 5.6 g/dL
  gamma-GTP: 0.8 IU/L
45 mg/kg, 24 h, dose level Low
  TERMINAL_BW: 211.2 g
  Bas: 1%
  Eos: 0.8%
  Fbg: 213.6 mg/dL
  Hb: 14.3 g/dL
  Ht: 42%
  Lym: 77.8%
  MCH: 21.7 pg
  MCHC: 33.9%
  MCV: 64.1 fL
  Mono: 2.4%
  Neu: 17.6%
  PT: 11.7 s
  Plat: 137.7 x10_4/uL
  RBC: 656.8 x10_4/ul
  Ret: 7.5%
  WBC: 87 x10_2/uL
  KIDNEY_L: 1 g
  KIDNEY_R: 1 g
  KIDNEY_TOTAL: 2 g
  LIVER: 9.2 g
  ALP: 861 IU/L
  ALT: 35.8 IU/L
  AST: 84 IU/L
  BUN: 21.8 mg/dL
  CRE: 0.5 mg/dL
  Ca: 10.7 mg/dL
  Cl: 104.6 meq/L
  DBIL: 0.062 mg/dL
  GLC: 217.8 mg/dL
  IP: 8.9 mg/dL
  K: 3.8 meq/L
  LDH: 239.4 IU/L
  Na: 144 meq/L
  PL: 132.2 mg/dL
  RALB: 3.7 g/dL
  TBIL: 0.1 mg/dL
  TC: 70.8 mg/dL
  TG: 76.4 mg/dL
  TP: 5.9 g/dL
  gamma-GTP: 1 IU/L
[1]
  TERMINAL_BW: 221.2 g
  Bas: 0%
  Eos: 0.8%
  Fbg: 211.2 mg/dL
  Hb: 12.6 g/dL
  Ht: 37.6%
  Lym: 73.4%
  MCH: 21.3 pg
  MCHC: 33.5%
  MCV: 63.4 fL
  Mono: 2.6%
  Neu: 22.2%
  PT: 12.4 s
  Plat: 120.3 x10_4/uL
  RBC: 593.4 x10_4/ul
  Ret: 8.4%
  WBC: 49.8 x10_2/uL
  KIDNEY_L: 0.9 g
  KIDNEY_R: 0.9 g
  KIDNEY_TOTAL: 1.8 g
  LIVER: 9.9 g
  ALP: 942 IU/L
  ALT: 33.4 IU/L
  AST: 71.4 IU/L
  BUN: 10.8 mg/dL
  CRE: 0.4 mg/dL
  Ca: 10.9 mg/dL
  Cl: 105.6 meq/L
  DBIL: 0.062 mg/dL
  GLC: 229.6 mg/dL
  IP: 10.3 mg/dL
  K: 3.8 meq/L
  LDH: 212.2 IU/L
  Na: 145.2 meq/L
  PL: 132.2 mg/dL
  RALB: 3.4 g/dL
  TBIL: 0.1 mg/dL
  TC: 69.8 mg/dL
  TG: 61.8 mg/dL
  TP: 5.4 g/dL
  gamma-GTP: 1 IU/L
[2]
  TERMINAL_BW: 215.2 g
  Bas: 0%
  Eos: 1%
  Fbg: 209.8 mg/dL
  Hb: 12.4 g/dL
  Ht: 36.4%
  Lym: 73%
  MCH: 21 pg
  MCHC: 34.2%
  MCV: 61.6 fL
  Mono: 2.4%
  Neu: 23%
  PT: 12.7 s
  Plat: 122.6 x10_4/uL
  RBC: 591.2 x10_4/ul
  Ret: 7.9%
  WBC: 46.9 x10_2/uL
  KIDNEY_L: 0.9 g
  KIDNEY_R: 1 g
  KIDNEY_TOTAL: 1.9 g
  LIVER: 9.4 g
  ALP: 685.2 IU/L
  ALT: 29.4 IU/L
  AST: 67.2 IU/L
  BUN: 9.4 mg/dL
  CRE: 0.4 mg/dL
  Ca: 10.4 mg/dL
  Cl: 105.6 meq/L
  DBIL: 0.064 mg/dL
  GLC: 246.2 mg/dL
  IP: 10.5 mg/dL
  K: 3.5 meq/L
  LDH: 214.6 IU/L
  Na: 144.4 meq/L
  PL: 127.6 mg/dL
  RALB: 3.3 g/dL
  TBIL: 0.1 mg/dL
  TC: 72.6 mg/dL
  TG: 26.2 mg/dL
  TP: 5.3 g/dL
  gamma-GTP: 0.8 IU/L
[3]
  TERMINAL_BW: 211.5 g
  Bas: 0%
  Eos: 1%
  Fbg: 222.4 mg/dL
  Hb: 12.4 g/dL
  Ht: 36.9%
  Lym: 71.8%
  MCH: 21.1 pg
  MCHC: 33.7%
  MCV: 62.7 fL
  Mono: 4%
  Neu: 20%
  PT: 12.7 s
  Plat: 126.5 x10_4/uL
  RBC: 590.6 x10_4/ul
  Ret: 8.3%
  WBC: 40.7 x10_2/uL
  KIDNEY_L: 0.9 g
  KIDNEY_R: 0.9 g
  KIDNEY_TOTAL: 1.8 g
  LIVER: 8.8 g
  ALP: 813.8 IU/L
  ALT: 29 IU/L
  AST: 64.2 IU/L
  BUN: 10.6 mg/dL
  CRE: 0.4 mg/dL
  Ca: 10.6 mg/dL
  Cl: 105.6 meq/L
  DBIL: 0.07 mg/dL
  GLC: 237.8 mg/dL
  IP: 10.8 mg/dL
  K: 3.6 meq/L
  LDH: 171.4 IU/L
  Na: 143.2 meq/L
  PL: 136.6 mg/dL
  RALB: 3.4 g/dL
  TBIL: 0.1 mg/dL
  TC: 81 mg/dL
  TG: 17.6 mg/dL
  TP: 5.4 g/dL
  gamma-GTP: 1 IU/L
[4]
  TERMINAL_BW: 194.9 g
  Bas: 0.4%
  Eos: 1%
  Fbg: 215.4 mg/dL
  Hb: 13.6 g/dL
  Ht: 39.9%
  Lym: 69.2%
  MCH: 21.3 pg
  MCHC: 34.2%
  MCV: 62.3 fL
  Mono: 5.2%
  Neu: 23.2%
  PT: 11.4 s
  Plat: 152.2 x10_4/uL
  RBC: 640.4 x10_4/ul
  Ret: 7.1%
  WBC: 43.7 x10_2/uL
  KIDNEY_L: 0.9 g
  KIDNEY_R: 0.9 g
  KIDNEY_TOTAL: 1.8 g
  LIVER: 7.8 g
  ALP: 873.2 IU/L
  ALT: 24.6 IU/L
  AST: 82 IU/L
  BUN: 14.2 mg/dL
  CRE: 0.4 mg/dL
  Ca: 10.5 mg/dL
  Cl: 104.4 meq/L
  DBIL: 0.072 mg/dL
  GLC: 239 mg/dL
  IP: 10.6 mg/dL
  K: 3.7 meq/L
  LDH: 257.2 IU/L
  Na: 144.8 meq/L
  PL: 138 mg/dL
  RALB: 3.6 g/dL
  TBIL: 0.1 mg/dL
  TC: 77.6 mg/dL
  TG: 21.2 mg/dL
  TP: 5.8 g/dL
  gamma-GTP: 0.8 IU/L
